Tests used:
[1] = tested on: PHLPP2; experiment: PHLPP2 phosphorylation (Phos-tag mobility shift; IP and phospho-PKA substrate immunoblot) in hepatocytes; format: cell-based, mouse
Excerpt: To investigate the effect of PKA on PHLPP2 phosphorylation in primary hepatocytes, either WT or S1119/1210A mutant of PHLPP2 was immunoprecipitated from cell extracts treated with glucagon or forskolin, and then subjected to immunoblot analysis with an antibody specific for phosphorylated PKA substrate proteins.

[2] = tested on: PHLPP2; experiment: Western blot of PHLPP2 levels in primary hepatocytes / Hepa1c1c7 cells; format: cell-based, mouse; settings: short- or long-term treatment, Rapamycin (20 nM), Torin1 (250 nM)
Excerpt: The GFP, Raptor and PHLPP1/2 adenoviruses have been described (Miyamoto et al., 2010; Pajvani et al., 2013). The HA-Flag-PHLPP2 adenovirus was constructed by inserting a Flag sequence into HA-PHLPP2 vector (Addgene #22403, courtesy of Alexandra Newton) and adenoviruses encoding HA-Flag-PHLPP2 generated by Welgen, Inc. (Worcester, Mass.). Mouse shPhlpp1 or 2 target sequences were selected among three candidate sequences, respectively and adenoviruses encoding shPhlpp1 or 2 generated by Welgen, Inc. For in vivo studies, we injected […] or 2.5×10^8 purified viral particles per g body weight; we performed metabolic analysis on days 3-5 and euthanized the mice at day 8 or 10 after injection. Infection with adenovirus in primary hepatocytes or Hepa1c1c7 cells was performed at 2.5, 5, or 10 multiplicity of infection (MOI).
We isolated and cultured primary mouse hepatocytes as previously described (Kim et al., 2012). For inhibitor experiments, we treated hepatocytes with 20 nM rapamycin (Cell Signaling), 250 nM Torin1, or vehicle for either 1 h or 24 h.
Tissues and cells were lysed in 0.3% CHAPS lysis buffer (Kim et al., 2002) unless otherwise stated, and whole cell lysates obtained by centrifugation. […]

[3] = tested on: free Raptor; experiment: DSS crosslinking assay for free Raptor in hepatocytes and hepatoma cells; format: cell-based, mouse
Protocol: Liver was lysed in 1% Triton X-100 lysis buffer (Kim et al., 2002) with or without 2.5 mg/ml DSP or DSS, and incubated for 2 h on ice. Crosslinking was quenched with 1 M Tris-HCl (pH 7.5) for 30 min on ice. For in vitro crosslinking assays, DSP or DSS were added to a final concentration of 1 mg/ml culture medium, and quenched by Tris-HCl as above. Equal protein (BCA assay, Thermo) was then subjected to Western blot, with or without IP.

[4] = molecular target: T1, PH domain leucine-rich repeat protein phosphatase 2 (PHLPP2), endogenous (mouse, UniProt Q8BXA7 1-1320); experiment: anti-PHLPP2 IP from primary hepatocytes and Hepa1c1c7 cells with or without MG-132, Western blot (FIG. 19i, FIG. 28j)
T1 construct: Endogenous protein, immunoprecipitated with anti-PHLPP2 or co-precipitated with anti-Akt; also called endogenous PHLPP2
T1 sequence (looked up): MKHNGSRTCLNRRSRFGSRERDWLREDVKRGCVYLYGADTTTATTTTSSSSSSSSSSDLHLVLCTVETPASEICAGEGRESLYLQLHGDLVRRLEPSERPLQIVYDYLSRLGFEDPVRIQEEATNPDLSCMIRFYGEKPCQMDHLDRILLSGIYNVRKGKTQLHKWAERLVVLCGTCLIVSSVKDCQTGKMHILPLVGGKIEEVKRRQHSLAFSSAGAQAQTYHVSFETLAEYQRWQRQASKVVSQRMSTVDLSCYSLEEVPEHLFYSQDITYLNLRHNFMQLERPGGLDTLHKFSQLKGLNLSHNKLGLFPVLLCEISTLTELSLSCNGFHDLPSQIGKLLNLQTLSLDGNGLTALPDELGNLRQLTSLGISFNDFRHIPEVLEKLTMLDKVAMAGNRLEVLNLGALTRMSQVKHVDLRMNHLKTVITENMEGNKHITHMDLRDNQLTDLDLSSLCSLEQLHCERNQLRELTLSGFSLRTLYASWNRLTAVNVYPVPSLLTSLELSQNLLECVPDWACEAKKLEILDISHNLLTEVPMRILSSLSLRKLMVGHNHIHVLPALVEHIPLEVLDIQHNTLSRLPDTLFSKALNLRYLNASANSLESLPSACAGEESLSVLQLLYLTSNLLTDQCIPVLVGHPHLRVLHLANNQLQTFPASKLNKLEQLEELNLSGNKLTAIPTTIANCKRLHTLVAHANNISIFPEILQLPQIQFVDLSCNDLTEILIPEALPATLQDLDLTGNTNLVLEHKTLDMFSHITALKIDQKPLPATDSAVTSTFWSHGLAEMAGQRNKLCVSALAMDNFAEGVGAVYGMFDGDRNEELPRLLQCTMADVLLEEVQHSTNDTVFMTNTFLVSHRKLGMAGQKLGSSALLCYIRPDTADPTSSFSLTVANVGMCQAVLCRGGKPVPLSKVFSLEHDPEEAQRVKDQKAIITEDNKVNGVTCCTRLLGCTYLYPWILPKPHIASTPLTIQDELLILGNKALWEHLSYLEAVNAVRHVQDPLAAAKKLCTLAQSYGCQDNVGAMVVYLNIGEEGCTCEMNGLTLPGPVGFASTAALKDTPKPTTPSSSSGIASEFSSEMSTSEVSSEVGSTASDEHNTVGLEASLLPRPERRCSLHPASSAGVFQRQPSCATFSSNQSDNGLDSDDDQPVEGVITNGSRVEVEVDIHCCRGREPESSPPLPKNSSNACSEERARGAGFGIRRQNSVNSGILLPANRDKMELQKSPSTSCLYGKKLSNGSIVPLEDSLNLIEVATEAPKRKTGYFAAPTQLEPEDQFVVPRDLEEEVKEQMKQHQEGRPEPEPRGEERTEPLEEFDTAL

For `O=S(=O)(NCCNC/C=C/c1ccc(Br)cc1)c1cccc2cnccc12` [H89], the “forskolin-mediated PHLPP2 phosphorylation” value ([1]; pretreatment with PKA inhibitor) was “reduced”.

For `CCC(=O)N1CCN(c2ccc(-n3c(=O)ccc4cnc5ccc(-c6cnc7ccccc7c6)cc5c43)cc2C(F)(F)F)CC1` [Torin1], the “decrease of basal or Raptor-increased PHLPP2 levels” value [2] was “neither”.

For glucagon, the “PKA-mediated phosphorylation of WT PHLPP2” value ([1]; primary hepatocytes, IP, phosphorylated PKA substrate antibody, not S1119A/S1210A mutant) was “robustly increased”.

With insulin the “free Raptor levels” value ([3]; brief exposure) was “ineffectual” and the “free Raptor levels” value ([3]; prolonged high-dose treatment to induce insulin resistance, primary hepatocytes or Hepa1c1c7 cells) was “reduced”.

B1: β-TrCP (beta-transducin repeat-containing protein) (other, mouse, UniProt Q3ULA2 1-605, looked up)
chain: MDPAEAVLQEKALKFMCSMPRSLWLGCSSLADSMPSLRCLYNPGTGALTAFQNSSEREDCNNGEPPRKIIPEKNSLRQTYNSCARLCINQETVCLTSTAMKTENCVAKAKLANGTSSMIVPKQRKLSASYEKEKELCVKYFEQWSESDQVEFVEHLISQMCHYQHGHINSYLKPMLQRDFITALPARGLDHIAENILSYLDAKSLCAAELVCKEWYRVTSDGMLWKKLIERMVRTDSLWRGLAERRGWGQYLFKNKPPDENAPPNSFYRALYPKIIQDIETIESNWRCGRHSLQRIHCRSETSKGVYCLQYDDQKIVSGLRDNTIKIWDKSTLECKRILTGHTGSVLCLQYDERVIITGSSDSTVRVWDVNAGEMLNTLIHHCEAVLHLRFNNGMMVTCSKDRSIAVWDMASPTDITLRRVLVGHRAAVNVVDFDDKYIVSASGDRTIKVWNTSTCEFVRTLNGHKRGIACLQYRDRLVVSGSSDNTIRLWDIECGACLRVLEGHEELVRCIRFDNKRIVSGAYDGKIKVWDLMAALDPRAPAGTLCLRTLVEHSGRVFRLQFDEFQIVSSSHDDTILIWDFLNDPAAHAEPPRSPSRTYTYISR
notes: E3 ligase substrate recognition subunit of the SCF complex; endogenous protein in mouse cells
B1: binds [4].
